Measured values from ChEMBL document CHEMBL1201862, “PubChem BioAssay data set” (2004).
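Five compound concentrations were applied to cells in 96-well plates for 48 hours; endpoints were derived by simple linear interpolation of the resulting dose-response curve. Here, GI50 denotes the concentration required for 50% inhibition of growth.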 Calls of active or inactive are those of the source. Cut-off read from the data, not from the text of the source: active = GI50 up to about 1.1 µM and inactive = higher.

Key:
Experiment in all cases: growth of human tumour cells (NCI), 48 h
[1] = tested on: M19-MEL
[2] = tested on: KM-20L2
[3] = tested on: RXF 631
[4] = tested on: DMS-114
[5] = tested on: DLD-1
[6] = tested on: DMS-273
[7] = tested on: SNB-78
[8] = tested on: HOP-18
[9] = tested on: XF498

Cc1nc2c(nc1C)C(=O)c1ccccc1C2=O
GI50 [1]: 0.258 µM (active) | GI50 [2]: 17.7 µM (inactive) | GI50 [3]: 11.9 µM (inactive) | GI50 [4]: 9.64 µM (inactive) | GI50 [5]: 14.9 µM (inactive) | GI50 [6]: 3.41 µM (inactive) | GI50 [7]: 26.9 µM (inactive) | GI50 [8]: 3.29 µM (inactive)

COC(=O)C(C(=O)C(=O)Nc1nc2ccc(OC)cc2s1)c1cnc2ccccc2n1 (stereo not given)
GI50 [1]: > 100 µM (inactive) | GI50 [9]: > 100 µM (inactive) | GI50 [2]: > 100 µM (inactive) | GI50 [5]: > 100 µM (inactive) | GI50 [7]: > 100 µM (inactive)

CN1CCN(CCSC2Cc3cc(Cl)ccc3Sc3ccccc32)CC1 (stereo not given)
GI50 [1]: 2.13 µM (inactive) | GI50 [9]: 3.03 µM (inactive) | GI50 [2]: 1.74 µM (inactive) | GI50 [4]: 4.9 µM (inactive) | GI50 [5]: 3.7 µM (inactive) | GI50 [6]: 2.1 µM (inactive) | GI50 [8]: 9.1 µM (inactive)

O=C(Nc1nc2ncn(CCNCCn3cnc4nc(NC(=O)c5ccccc5)[nH]c(=O)c43)c2c(=O)[nH]1)c1ccccc1
GI50 [1]: > 100 µM (inactive) | GI50 [9]: > 100 µM (inactive) | GI50 [2]: > 100 µM (inactive) | GI50 [5]: > 100 µM (inactive) | GI50 [6]: > 100 µM (inactive) | GI50 [7]: > 100 µM (inactive) | GI50 [8]: > 100 µM (inactive)

FC(F)(F)c1ccccc1C1SCc2nc3ccccc3n21 (stereo not given)
GI50 [1]: 43.3 µM (inactive) | GI50 [4]: 33 µM (inactive) | GI50 [5]: 52.2 µM (inactive) | GI50 [6]: 38 µM (inactive) | GI50 [7]: > 100 µM (inactive) | GI50 [8]: > 100 µM (inactive)

COc1cc2ccc(CC(=O)O)cc2cc1OC
GI50 [1]: > 100 µM (inactive) | GI50 [2]: > 100 µM (inactive) | GI50 [3]: > 100 µM (inactive) | GI50 [4]: > 100 µM (inactive) | GI50 [5]: > 100 µM (inactive) | GI50 [6]: > 100 µM (inactive) | GI50 [7]: > 100 µM (inactive) | GI50 [8]: > 100 µM (inactive)

COC(=O)[C@@]12CC(C(C)C)[C@H]3CC(C(=O)C=C1OC)[C@H]32 (stereo not given in full)
GI50 [1]: > 100 µM (inactive) | GI50 [9]: > 100 µM (inactive) | GI50 [2]: > 100 µM (inactive) | GI50 [3]: > 100 µM (inactive) | GI50 [4]: > 100 µM (inactive) | GI50 [5]: > 100 µM (inactive) | GI50 [6]: > 100 µM (inactive) | GI50 [7]: > 100 µM (inactive) | GI50 [8]: > 100 µM (inactive)

CN(C)CCC(=O)N1C/C(=C\c2ccc(Cl)c(Cl)c2)C(=O)/C(=C/c2ccc(Cl)c(Cl)c2)C1
GI50 [1]: 0.427 µM (active) | GI50 [9]: 1.12 µM (active) | GI50 [2]: 0.577 µM (active) | GI50 [3]: 0.455 µM (active) | GI50 [4]: 0.452 µM (active) | GI50 [5]: 0.157 µM (active) | GI50 [6]: 0.15 µM (active) | GI50 [7]: 0.476 µM (active) | GI50 [8]: 1.02 µM (active)

Cc1ccc(C(=O)c2nnc(C(=O)c3ccc(C)cc3)nn2)cc1
GI50 [1]: 26.1 µM (inactive) | GI50 [2]: 65.9 µM (inactive) | GI50 [5]: 43.2 µM (inactive) | GI50 [6]: 39.4 µM (inactive) | GI50 [7]: > 100 µM (inactive) | GI50 [8]: 33.4 µM (inactive)

Cc1ccc(C(=O)N(C2CCCCC2)C2CCCCC2)cc1/N=N/N(C)C
GI50 [1]: 19.1 µM (inactive) | GI50 [5]: 14.7 µM (inactive) | GI50 [6]: 17.1 µM (inactive) | GI50 [7]: 15.8 µM (inactive)

O=C(O)c1ccc(/N=N/c2cc(S(=O)(=O)O)c3cccnc3c2O)cc1
GI50 [1]: > 100 µM (inactive) | GI50 [9]: > 100 µM (inactive) | GI50 [2]: > 100 µM (inactive) | GI50 [4]: > 100 µM (inactive) | GI50 [5]: 63.4 µM (inactive) | GI50 [6]: > 100 µM (inactive) | GI50 [7]: > 100 µM (inactive)

CN(C)c1snc2c1c(=O)n(C)c(=O)n2C
GI50 [1]: > 100 µM (inactive) | GI50 [9]: > 100 µM (inactive) | GI50 [2]: > 100 µM (inactive) | GI50 [3]: > 100 µM (inactive) | GI50 [4]: > 100 µM (inactive) | GI50 [5]: > 100 µM (inactive) | GI50 [6]: > 100 µM (inactive) | GI50 [8]: > 100 µM (inactive)

CCOC(=O)N1c2c(ccn2C)-c2ccn(C)c2N1C(=O)OCC
GI50 [1]: 26.4 µM (inactive) | GI50 [9]: 17 µM (inactive) | GI50 [2]: 14.6 µM (inactive) | GI50 [3]: 18.9 µM (inactive) | GI50 [4]: > 10 µM (inactive) | GI50 [5]: 13.6 µM (inactive)

NC(=O)c1cc(C2OC(CO)C(O)C2O)nn1-c1ccc([N+](=O)[O-])cc1 (stereo not given)
GI50 [9]: > 100 µM (inactive) | GI50 [2]: > 100 µM (inactive) | GI50 [4]: > 100 µM (inactive) | GI50 [5]: > 100 µM (inactive) | GI50 [6]: > 100 µM (inactive) | GI50 [7]: 36.7 µM (inactive) | GI50 [8]: > 100 µM (inactive)

N=CCCN(CCC=N)c1ccc(/C=C2\CN(NC(=O)c3ccc(Cl)cc3)C(c3ccccc3)=N2)cc1
GI50 [2]: > 100 µM (inactive) | GI50 [3]: > 100 µM (inactive) | GI50 [4]: > 100 µM (inactive) | GI50 [5]: > 100 µM (inactive) | GI50 [6]: > 100 µM (inactive) | GI50 [7]: > 100 µM (inactive) | GI50 [8]: > 100 µM (inactive)

CC(=O)C1=CCC2c3[nH]c4ccccc4c3CCN2C1 (stereo not given)
GI50 [1]: > 100 µM (inactive) | GI50 [9]: 62.5 µM (inactive) | GI50 [2]: 21 µM (inactive) | GI50 [3]: 45.4 µM (inactive) | GI50 [5]: 70.3 µM (inactive) | GI50 [6]: 34.5 µM (inactive) | GI50 [7]: 32.1 µM (inactive) | GI50 [8]: > 100 µM (inactive)

CCOC(=O)C1C(c2ccccc2)=C(c2ccccc2)C(c2ccccc2)=C1c1ccccc1
GI50 [1]: 41.4 µM (inactive) | GI50 [9]: 21.9 µM (inactive) | GI50 [2]: > 100 µM (inactive) | GI50 [3]: 50.5 µM (inactive) | GI50 [4]: 27.8 µM (inactive) | GI50 [5]: > 100 µM (inactive) | GI50 [6]: 31.3 µM (inactive) | GI50 [7]: 27.5 µM (inactive) | GI50 [8]: 23.7 µM (inactive)

CCN1C(=O)C/C(=C\C(C)=O)Nc2ccccc21
GI50 [1]: > 100 µM (inactive) | GI50 [9]: > 100 µM (inactive) | GI50 [4]: > 100 µM (inactive) | GI50 [5]: 18.9 µM (inactive) | GI50 [6]: > 100 µM (inactive) | GI50 [7]: > 100 µM (inactive)

O=c1c2ccccc2oc2ccccc12.Oc1cccc2cccnc12
GI50 [4]: 1.63 µM (inactive) | GI50 [5]: 1.76 µM (inactive) | GI50 [6]: 1.94 µM (inactive)

O=C(O)CN(c1ccccc1)S(=O)(=O)c1ccc(Cl)cc1
GI50 [1]: > 100 µM (inactive) | GI50 [2]: > 100 µM (inactive) | GI50 [3]: > 100 µM (inactive) | GI50 [5]: > 100 µM (inactive) | GI50 [6]: > 100 µM (inactive) | GI50 [8]: > 100 µM (inactive)

O=C(N[C@H](CO)[C@H](O)c1ccc([N+](=O)[O-])cc1)C(Cl)Cl [CHLORAMPHENICOL]
GI50 [1]: > 100 µM (inactive) | GI50 [2]: > 100 µM (inactive) | GI50 [4]: > 100 µM (inactive) | GI50 [5]: > 100 µM (inactive) | GI50 [6]: > 100 µM (inactive)

CN(C)/N=N/c1[nH]cnc1C(N)=O [DACARBAZINE]
GI50 [1]: 64.4 µM (inactive) | GI50 [9]: 21.8 µM (inactive) | GI50 [2]: 53.6 µM (inactive) | GI50 [3]: 54.1 µM (inactive) | GI50 [4]: 71.3 µM (inactive) | GI50 [5]: 56.9 µM (inactive) | GI50 [6]: 12.8 µM (inactive) | GI50 [7]: 63.2 µM (inactive) | GI50 [8]: 15.5 µM (inactive)
